Results taken from US9167821B2 (priority 2009, dated 2015).

Assay: physchem
Text: The determination is effected in the acidic range at pH 2.3 using 0.1% aqueous phosphoric acid and acetonitrile as eluents; linear gradient from 10% acetonitrile to 95% acetonitrile. • ^[b] The LC-MS determination in the acidic range is effected at pH 2.7 using 0.1% aqueous formic acid and acetonitrile (contains 0.1% formic acid) as eluents; linear gradient from 10% acetonitrile to 95% acetonitrile. • ^[c] The LC-MS determination in the neutral range is effected at pH 7.8 using 0.001 molar aqueous ammonium hydrogencarbonate solution and acetonitrile as eluents; linear gradient from 10% acetonitrile to 95% acetonitrile.
The calibration is effected with unbranched alkan-2-ones (having 3 to 16 carbon atoms) with known log P values (determination of the log P values using the retention times by linear interpolation between two successive alkanones).

Compound: O=C(O)c1ccccc1C1CC(c2csc(C3CCN(C(=O)Cn4nc(C(F)F)cc4C(F)F)CC3)n2)=NO1 (centres unmarked) [2-{3-[2-(1-{[3,5-Bis(difluoromethyl)-1H-pyrazol-1-yl]acetyl}piperidin-4-yl)-1,3-thiazol-4-yl]-4,5-dihydro-1,2-oxazol-5-yl}benzoic acid]
- chromatographic logP (pH 2.7, log P (HCOOH)): 2.63

Compound: COCCOCc1ccccc1C1CC(c2csc(C3CCN(C(=O)Cn4nc(C(F)F)cc4C(F)F)CC3)n2)=NO1 (centres unmarked) [I-11, 2-[3,5-Bis(difluoromethyl)-1H-pyrazol-1-yl]-1-{4-[4-(5-{2-[(2-methoxyethoxy)methyl]phenyl}-4,5-dihydro-1,2-oxazol-3-yl)-1,3-thiazol-2-yl]piperidin-1-yl}ethanone]
- chromatographic logP (pH 2.7, logp [b]): 3.21

Compound: CCSCc1ccccc1C1CC(c2csc(C3CCN(C(=O)Cn4nc(C(F)F)cc4C(F)F)CC3)n2)=NO1 (centres unmarked) [I-12, 2-[3,5-Bis(difluoromethyl)-1H-pyrazol-1-yl]-1-{4-[4-(5-{2-[(ethylsulphanyl)methyl]phenyl}-4,5-dihydro-1,2-oxazol-3-yl)-1,3-thiazol-2-yl]piperidin-1-yl}ethanone]
- chromatographic logP (pH 2.7, logp [b]): 3.9

Compound: O=C(OCC1CC1)c1ccccc1C1CC(c2csc(C3CCN(C(=O)Cn4nc(C(F)F)cc4C(F)F)CC3)n2)=NO1 (centres unmarked) [I-13, Cyclopropylmethyl 2-{3-[2-(1-{[3,5-bis(difluoromethyl)-1H-pyrazol-1-yl]acetyl}piperidin-4-yl)-1,3-thiazol-4-yl]-4,5-dihydro-1,2-oxazol-5-yl}benzoate]
- chromatographic logP (pH 2.7, logp [b]): 3.99
- chromatographic logP (pH 7.8, logp [c]): 3.92

Compound: O=Cc1cccc(F)c1C1CC(c2csc(C3CCN(C(=O)Cn4nc(C(F)F)cc4C(F)F)CC3)n2)=NO1 (centres unmarked) [I-17, 2-{3-[2-(1-{[3,5-Bis(difluoromethyl)-1H-pyrazol-1-yl]acetyl}piperidin-4-yl)-1,3-thiazol-4-yl]-4,5-dihydro-1,2-oxazol-5-yl}-3-fluorobenzaldehyde]
- chromatographic logP (pH 2.7, logp [b]): 2.92
- chromatographic logP (pH 7.8, logp [c]): 2.82

Compound: C=C(C)COc1ccccc1C1CC(c2csc(C3CCN(C(=O)Cn4nc(C(F)F)cc4C(F)F)CC3)n2)=NO1 (centres unmarked) [I-18, 2-[3,5-bis(difluoromethyl)-1H-pyrazol-1-yl]-1-{4-[4-(5-{2-[(2-methylprop-2-en-1-yl)oxy]phenyl}-4,5-dihydro-1,2-oxazol-3-yl)-1,3-thiazol-2-yl]piperidin-1-yl}ethanone]
- chromatographic logP (pH 2.7, logp [b]): 3.96
- chromatographic logP (pH 7.8, logp [c]): 3.92

Compound: O=C(Cn1nc(C(F)F)cc1C(F)F)N1CCC(c2nc(C3=NOC(c4ccccc4OCC4CCCCC4)C3)cs2)CC1 (centres unmarked) [I-24, 2-[3,5-Bis(difluoromethyl)-1H-pyrazol-1-yl]-1-[4-(4-{5-[2-(cyclohexylmethoxy)phenyl]-4,5-dihydro-1,2-oxazol-3-yl}-1,3-thiazol-2-yl)piperidin-1-yl]ethanone]
- chromatographic logP (pH 2.3): 4.9
- chromatographic logP (pH 7.8): 4.9

Compound: O=C(NC1CC1)c1ccccc1C1CC(c2csc(C3CCN(C(=O)Cn4nc(C(F)F)cc4C(F)F)CC3)n2)=NO1 (centres unmarked) [I-27, 2-{3-[2-(1-{[3,5-Bis(difluoromethyl)-1H-pyrazol-1-yl]acetyl}piperidin-4-yl)-1,3-thiazol-4-yl]-4,5-dihydro-1,2-oxazol-5-yl}-N-cyclopropylbenzamide]
- chromatographic logP (pH 2.7, logp [b]): 2.64

Compound: COCCOc1cccc(C2CC(c3csc(C4CCN(C(=O)Cn5nc(C(F)F)cc5C(F)F)CC4)n3)=NO2)c1 (centres unmarked) [I-28, 2-[3,5-Bis(difluoromethyl)-1H-pyrazol-1-yl]-1-[4-(4-{5-[3-(2-methoxyethoxy)phenyl]-4,5-dihydro-1,2-oxazol-3-yl}-1,3-thiazol-2-yl)piperidin-1-yl]ethanone]
- chromatographic logP (pH 2.7, logp [b]): 3.03
- chromatographic logP (pH 7.8, logp [c]): 3.04

Compound: O=Cc1ccccc1-c1cc(-c2csc(C3CCN(C(=O)Cn4nc(C(F)F)cc4C(F)F)CC3)n2)no1 [I-31, 2-{3-[2-(1-{[3,5-Bis(difluoromethyl)-1H-pyrazol-1-yl]acetyl}piperidin-4-yl)-1,3-thiazol-4-yl]-1,2-oxazol-5-yl}benzaldehyde]
- chromatographic logP (pH 2.7, logp [b]): 3.25

Compound: O=C(Oc1ccccc1C1CC(c2csc(C3CCN(C(=O)Cn4nc(C(F)F)cc4C(F)F)CC3)n2)=NO1)C1CCCCC1 (centres unmarked) [I-32, 2-{3-[2-(1-{[3,5-bis(difluoromethyl)-1H-pyrazol-1-yl]acetyl}piperidin-4-yl)-1,3-thiazol-4-yl]-4,5-dihydro-1,2-oxazol-5-yl}phenyl cyclohexanecarboxylate]
- chromatographic logP (pH 2.3): 4.27
- chromatographic logP (pH 7.8, logp [c]): 4.19

Compound: CS(=O)(=O)Nc1ccccc1C1CC(c2csc(C3CCN(C(=O)Cn4nc(C(F)F)cc4C(F)F)CC3)n2)=NO1 (centres unmarked) [I-37, N-(2-{3-[2-(1-{[3,5-Bis(difluoromethyl)-1H-pyrazol-1-yl]acetyl}piperidin-4-yl)-1,3-thiazol-4-yl]-4,5-dihydro-1,2-oxazol-5-yl}phenyl)methanesulphonamide]
- chromatographic logP (pH 2.7, logp [b]): 2.51

Compound: C#Cc1ccccc1C1CC(c2csc(C3CCN(C(=O)Cn4nc(C(F)F)cc4C(F)F)CC3)n2)=NO1 (centres unmarked) [I-38, 2-[3,5-Bis(difluoromethyl)-1H-pyrazol-1-yl]-1-(4-{4-[5-(2-ethynylphenyl)-4,5-dihydro-1,2-oxazol-3-yl]-1,3-thiazol-2-yl}piperidin-1-yl)ethanone]
- chromatographic logP (pH 2.7, logp [b]): 3.36

Compound: COC(=O)c1ccccc1C1CC(c2csc(C3CCN(C(=O)Cn4nc(C(F)F)cc4C(F)F)CC3)n2)=NO1 (centres unmarked) [I-43, Methyl 2-{3-[2-(1-{[3,5-bis(difluoromethyl)-1H-pyrazol-1-yl]acetyl}piperidin-4-yl)-1,3-thiazol-4-yl]-4,5-dihydro-1,2-oxazol-5-yl}benzoate]
- chromatographic logP (pH 2.7, logp [b]): 3.32

Compound: O=C(Cn1nc(C(F)F)cc1C(F)F)N1CCC(c2nc(C3=NOC(c4ccccc4CCl)C3)cs2)CC1 (centres unmarked) [I-44, 2-[3,5-Bis(difluoromethyl)-1H-pyrazol-1-yl]-1-[4-(4-{5-[2-(chloromethyl)phenyl]-4,5-dihydro-1,2-oxazol-3-yl}-1,3-thiazol-2-yl)piperidin-1-yl]ethanone]
- chromatographic logP (pH 2.7, logp [b]): 3.36

Compound: O=C(Cn1nc(C(F)F)cc1C(F)F)N1CCC(c2nc(C3=NOC(c4ccccc4CO)C3)cs2)CC1 (centres unmarked) [I-45, 2-[3,5-Bis(difluoromethyl)-1H-pyrazol-1-yl]-1-[4-(4-{5-[2-(hydroxymethyl)phenyl]-4,5-dihydro-1,2-oxazol-3-yl}-1,3-thiazol-2-yl)piperidin-1-yl]ethanone]
- chromatographic logP (pH 2.7, logp [b]): 2.45

Compound: COC(=O)c1ccccc1C1CC(c2nc(C3CCN(C(=O)Cn4nc(C(F)F)cc4C(F)F)CC3)sc2Cl)=NO1 (centres unmarked) [I-46, methyl 2-{3-[2-(1-{[3,5-bis(difluoromethyl)-1H-pyrazol-1-yl]acetyl}piperidin-4-yl)-5-chloro-1,3-thiazol-4-yl]-4,5-dihydro-1,2-oxazol-5-yl}benzoate]
- chromatographic logP (pH 2.7, logp [b]): 3.98

Compound: C#CCOc1cccc(Cl)c1C1CC(c2csc(C3CCN(C(=O)Cn4nc(C(F)F)cc4C(F)F)CC3)n2)=NO1 (centres unmarked) [I-49, 2-[3,5-bis(difluoromethyl)-1H-pyrazol-1-yl]-1-[4-(4-{5-[2-chloro-6-(prop-2-yn-1-yloxy)phenyl]-4,5-dihydro-1,2-oxazol-3-yl}-1,3-thiazol-2-yl)piperidin-1-yl]ethanone]
- chromatographic logP (pH 2.7, logp [b]): 3.5
- chromatographic logP (pH 7.8, logp [c]): 3.34

Compound: COCCOc1cccc(Cl)c1C1CC(c2csc(C3CCN(C(=O)Cn4nc(C(F)F)cc4C(F)F)CC3)n2)=NO1 (centres unmarked) [I-50, 2-[3,5-bis(difluoromethyl)-1H-pyrazol-1-yl]-1-[4-(4-{5-[2-chloro-6-(2-methoxyethoxy)phenyl]-4,5-dihydro-1,2-oxazol-3-yl}-1,3-thiazol-2-yl)piperidin-1-yl]ethanone]
- chromatographic logP (pH 2.7, logp [b]): 3.36
